Results reported in US6416642B1, “Method and apparatus for continuous liquid flow in microscale channels using pressure injection, wicking, and electrokinetic injection” (Caliper Technologies Corp., priority 1999, dated 2002).

Test system: purinergic, P2Y receptor
Test: Calcium flux assay in continuous-flow microfluidic device (Fluo-3 fluorescence)
Type: cell-based
Details: THP-1 cells loaded with Fluo-3; UTP 0-3 μM; FIG. 13 upper trace
Experimental: Using a continuous flow format in planar chips using a wick to generate constant pressure driven flow, cells were mixed with an agonist and down-stream fluorescence detectors were used to monitor indicator cells using Fluo-3 (Molecular Probes Inc.) calcium sensitive fluorescent dye as a probe for receptor activation of calcium fluxes. THP-1 cells were loaded with Fluo-3 by incubation with a 4 μM concentration of the Fluo-3 AM (acetoxymethyl ester) in Hank's Balanced Salt Solution(HBSS) containing 20 mM HEPES, pH 7.0, and 1 mg/ml bovine serum albumin. After a 40 minute incubation at 37° C., Syto-6, a fluorescent DNA stain, was added to 2.5 μM, and the cells were incubated for an additional 10 minutes at room temperature. The cells were then washed free of excess dye by pelleting at 300×g for 5 minutes and resuspending and repelleting. The cells were resuspended in Cell Buffer (HBSS containing 20 mM HEPES, pH 7.0, 1 mg/ml BSA and 10% Optiprep). […]
By taking the ratio of the two fluorescent dyes, it is possible to normalize the calcium flux response in the THP-1 cells since the DNA staining intensity is a constant in diploid, resting cells, and thereby quantitate the increase in calcium concentration.

Compound: O=c1ccn([C@@H]2O[C@H](COP(=O)(O)OP(=O)(O)OP(=O)(O)O)[C@@H](O)[C@H]2O)c(=O)[nH]1 [UTP]
- fluorescence of the calcium sensitive dye (intracellular free calcium): increases with UTP treatment in a dose dependent manner
